# Tested on: bovine cardiac myofibrils
# Assay: Myofibril assay: PK/LDH-coupled steady-state ATPase activity of skinned bovine cardiac myofibrils
# Type: biochemical
# Conditions: Ca2+ activating to 75% of maximal rate
# In short: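 Steady-state ATPase of detergent-skinned bovine left-ventricular myofibrils (1 mg/mL), PK/LDH-coupled NADH read at 340 nm, in PIPES/MgCl2 buffer pH 6.8 with 50 μM ATP, 0.6 mM EGTA and CaCl2 set for 50% or 75% activation. Inhibition of activity measured.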
row,CDMF75 IC15,Compound
1,5.8 µM,"CC(=O)N1CC(C2C(=O)N(c3ncc(Cl)cc3F)CC(=O)N2Cc2ccc(C(F)(F)F)cc2)C1 (stereo not drawn) [Compound 643, 3-(1-acetylazetidin-3-yl)-1-(5-chloro-3-fluoropyridin-2-yl)-4-(4-(trifluoro-methyl)benzyl)piperazine-2,5-dione]"
2,5.7 µM,"CC(C)N1CC(=O)N(Cc2ccc(C(F)(F)F)cc2)C2(CCN(c3cccnn3)C2)C1=O (stereo not drawn) [Compound 73, 9-isopropyl-2-(pyridazin-3-yl)-6-(4-(trifluoromethyl)benzyl)-2,6,9-triazaspiro[4.5]-decane-7,10-dione]"
3,1.2 µM,"COC(=O)N1CC2(C1)C(=O)N(c1ncc(Cl)cc1F)CC(=O)N2[C@@H](C)c1ccc(Cl)cc1 [Compound 567, methyl (S)-8-(5-chloro-3-fluoropyridin-2-yl)-5-(1-(4-chlorophenyl)ethyl)-6,9-dioxo-2,5,8-triazaspiro-[3.5]nonane-2-carboxylate]"
4,5.4 µM,"CC(C)N1CC(=O)N(Cc2ccc(Cl)cc2)C2(CN(c3cncs3)C2)C1=O [Compound 33, 5-(4-chlorobenzyl)-8-isopropyl-2-(thiazol-5-yl)-2,5,8-triazaspiro[3.5]-nonane-6,9-dione]"
5,2.6 µM,"C[C@@H](c1ccc(Cl)cc1)N1C(=O)CN(c2ncc(Cl)cc2F)C(=O)C12CN(C(=O)OCC(F)F)C2 [Compound 569, 2,2-difluoroethyl (S)-8-(5-chloro-3-fluoropyridin-2-yl)-5-(1-(4-chlorophenyl)-ethyl)-6,9-dioxo-2,5,8-triazaspiro[3.5]nonane-2-carboxylate]"
6,0.7 µM,"N#Cc1ccc(N2CCC3(C2)C(=O)N(c2ccc([N+](=O)[O-])cc2)CC(=O)N3Cc2ccc(Cl)cc2)nc1 (stereo not drawn) [Compound 348, 6-(6-(4-chlorobenzyl)-9-(4-nitrophenyl)-7,10-dioxo-2,6,9-triazaspiro[4.5]decan-2-yl)nicotinonitrile]"
7,0.2 µM,"CNC(=O)c1ccc(N2CC3(C2)C(=O)N(c2ccc(C#N)cc2F)CC(=O)N3Cc2ccc(C(F)(F)F)cc2)cc1 [Compound 540, 4-(8-(4-cyano-2-fluorophenyl)-6,9-dioxo-5-(4-(trifluoromethyl)benzyl)-2,5,8-triazaspiro[3.5]nonan-2-yl)-N-methylbenzamide]"
8,4.9 µM,"CC(C)N1CC(=O)N(Cc2ccc(Cl)cc2)C(c2cccc(Cl)c2)C1=O (stereo not drawn) [Compound 312, 4-(4-chlorobenzyl)-3-(3-chlorophenyl)-1-isopropylpiperazine-2,5-dione]"
9,1.3 µM,"CNC(=O)N1CC2(C1)C(=O)N(c1ncc(Cl)cc1F)CC(=O)N2[C@@H](C)c1ccc(C(F)(F)F)cc1 [Compound 592, (S)-8-(5-chloro-3-fluoro-pyridin-2-yl)-N-methyl-6,9-dioxo-5-(1-(4-(trifluoromethyl)phenyl)-ethyl)-2,5,8-triazaspiro-[3.5]nonane-2-carboxamide]"
10,1.4 µM,"O=C1C(C2COC2)N(Cc2ccc(F)c(Cl)c2)C(=O)CN1c1ncc(Cl)cc1F (stereo not drawn) [Compound 668, 1-(5-chloro-3-fluoropyridin-2-yl)-4-(3-chloro-4-fluorobenzyl)-3-(oxetan-3-yl)piperazine-2,5-dione]"
11,0.6 µM,"CCOC(=O)C1CC2(C1)C(=O)N(c1ncc(Cl)cc1F)CC(=O)N2Cc1ccc(C(F)(F)F)cc1 (single isomer, unassigned) [Compound 859A, ethyl 8-(5-chloro-3-fluoropyridin-2-yl)-6,9-dioxo-5-(4-(trifluoromethyl)benzyl)-5,8-diazaspiro[3.5]nonane-2-carboxylate]"
12,0.5 µM,Cc1noc([C@H]2C[C@]3(C2)C(=O)N(c2ccc(C#N)cc2F)CC(=O)N3Cc2ccc(C(F)(F)F)cc2)n1 [Compound 432B]
13,8.3 µM,"CC(C)N1CC(=O)N(Cc2ccc(C(F)(F)F)cc2)C2(CCN(C(=O)Nc3ccccc3)C2)C1=O (stereo not drawn) [Compound 109, 9-isopropyl-7,10-dioxo-N-phenyl-6-(4-(trifluoro-methyl)benzyl)-2,6,9-triazaspiro[4.5]decane-2-carboxamide]"
14,>39 µM,"CC(C)N1CC(=O)N(Cc2ccc(Cl)cc2)C2(CCN(c3ccccn3)C2)C1=O (single isomer, unassigned) [Compound 373B, 6-[(4-chlorophenyl)methyl]-9-(propan-2-yl)-2-(pyridin-2-yl)-2,6,9-triazaspiro[4.5]decane-7,10-dione]"
15,12.8 µM,"Cc1nnc(N2CC3(C2)C(=O)N(C(C)C)CC(=O)N3Cc2ccc(Cl)cc2)o1 [Compound 45, 5-(4-chlorobenzyl)-8-isopropyl-2-(5-methyl-1,3,4-oxadiazol-2-yl)-2,5,8-triazaspiro[3.5]-nonane-6,9-dione]"
16,23.4 µM,"CC(C)CN1CC(=O)N(Cc2ccc(C(F)(F)F)cc2)C2(CN(c3ccc(C#N)cn3)C2)C1=O [Compound 59, 6-(8-isobutyl-6,9-dioxo-5-(4-(trifluoromethyl)benzyl)-2,5,8-triazaspiro[3.5]-nonan-2-yl)nicotinonitrile]"
17,3.6 µM,"CCOC(=O)C12CC(C3C(=O)N(c4ncc(Cl)cc4F)CC(=O)N3Cc3ccc(C(F)(F)F)cc3)(C1)C2 (stereo not drawn) [Compound 782, ethyl 3-(4-(5-chloro-3-fluoropyridin-2-yl)-3,6-dioxo-1-(4-(trifluoro-methyl)benzyl)piperazin-2-yl)bicyclo[1.1.1]pentane-1-carboxylate]"
18,4.8 µM,"CC(C)N1CC(=O)N(Cc2ccc(Cl)cc2)C2(CCN(c3ccncn3)C2)C1=O (stereo not drawn) [Compound 71, 6-(4-chlorobenzyl)-9-isopropyl-2-(pyrimidin-4-yl)-2,6,9-triazaspiro-[4.5]decane-7,10-dione]"
19,0.7 µM,CNC(=O)[C@H]1C[C@]2(C1)C(=O)N(c1ccc(C#N)cc1F)CC(=O)N2Cc1ccc(C(F)(F)F)cc1 [Compound 486B]
20,11.8 µM,"Cc1ccc(CN2C(=O)CN(c3ncc(Cl)cc3C)C(=O)C2C2COC2)cc1 (stereo not drawn) [Compound 733, 1-(5-chloro-3-methyl-pyridin-2-yl)-4-(4-methyl-benzyl)-3-(oxetan-3-yl)-piperazine-2,5-dione]"
21,15.9 µM,"CCC(=O)N1CC2(C1)C(=O)N(c1ccc(C#N)cc1)CC(=O)N2Cc1ccc(C(F)(F)F)cc1 [Compound 187, 4-(6,9-dioxo-2-propionyl-5-(4-(trifluoromethyl)benzyl)-2,5,8-triazaspiro[3.5]nonan-8-yl)benzonitrile]"
22,0.9 µM,"CC(C)N1CC(=O)N(Cc2ccc(C(F)(F)F)cc2)C2(CN(c3ccccn3)C2)C1=O [Compound 46, 8-isopropyl-2-(pyridin-2-yl)-5-(4-(trifluoromethyl)-benzyl)-2,5,8-triazaspiro-[3.5]nonane-6,9-dione]"
23,2.5 µM,"O=C1C(C2COC2)N(Cc2ccc(C(F)F)cc2)C(=O)CN1c1ncc(Cl)cc1F (stereo not drawn) [Compound 650, 1-(5-chloro-3-fluoropyridin-2-yl)-4-(4-(difluoro-methyl)benzyl)-3-(oxetan-3-yl)piperazine-2,5-dione]"

row,Compound,CDMF75 IC15
1,"COC(=O)N1CC2(C1)C(=O)N(c1ccc(C#N)c(F)c1)CC(=O)N2Cc1ccc(C(F)(F)F)cc1 [Compound 196, methyl 8-(4-cyano-3-fluorophenyl)-6,9-dioxo-5-(4-(trifluoromethyl)benzyl)-2,5,8-triazaspiro[3.5]nonane-2-carboxylate]",0.4 µM
